In patent publication US20230340406A1, “METHODS AND COMPOSITIONS FOR PRODUCING STEM CELL DERIVED SPINAL GABA INHIBITORY NEURONS FOR USE IN TREATMENT OF SPINAL CORD INJURY” (BrainXell, Inc., priority 2020, published 2023):

Test system: SCI model in rats
Assay: Spasticity: amplitude of the Hoffman reflex (H-reflex)
Type: in vivo, rat
Settings: for H % following CNO: 12 weeks
From the text: Taking advantage of the DREADD-expressing neural cells we transplanted, we asked if the therapeutic effects depend on the activity of the grafted cells.

## C[N+]1([O-])CCN(C2=Nc3cc(Cl)ccc3Nc3ccccc32)CC1 [CNO]
cell-transplanted rats (DREADD-expressing cells), 3 mg/kg, 6 weeks, 2 Hz
  H % following CNO injection: 47%±4.12%
cell-transplanted rats, 3 mg/kg, 6 weeks, 1 Hz
  decrease of H % following CNO injection: not at 1 Hz
cell-transplanted rats, 3 mg/kg, 6 weeks, 5 Hz
  H % following CNO injection: 28.21%±5.63%
cell-transplanted rats, 1 Hz
  H % following CNO: 26.05%±5.64%
cell-transplanted rats, 2 Hz
  H % following CNO: 17.57%±4.98%
cell-transplanted rats, 5 Hz
  H % following CNO: 9.09%±1.52%
Control animals: sham operation, SCI, SCI injected with medium
  change of H % in response to CNO treatment: did not show any changes
